# Measurements taken from US7868013B2, “Cycloalkyl substituted pyrimidinediamine compounds and their uses” (Rigel Pharmaceuticals, Inc., priority 2004, dated 2011).
# Read-outs that look alike come from different tables or passages of the source.
# Key:
# [1] = tested on: H1299 (non-small cell lung carcinoma); test: In vitro antiproliferation assay, H1299 cells (TABLE 1 6 point assay; TABLE 2); assay type: cell-based
# Description: (§1) Certain compounds were tested against other cell types for their ability to inhibit proliferation in standard antiproliferation assays.
# A549 (lung carcinoma) = test: In vitro antiproliferation assay, A549 cells (TABLE 1 6 point assay; TABLE 2); assay type: cell-based
# Description: as §1
# [2] = Homo sapiens, NCI-H1299, H1299 cells, 6 point assay, read-out: H1299, 6pt (IC50, inhibition of proliferation)
# [3] = Homo sapiens, A549, A549 cells, 6 point assay, read-out: A549, 6pt (IC50, inhibition of proliferation)
# [4] = Homo sapiens, NCI-H1299, 6 point assay, H1299 cells, read-out: IC50, H1299 cells
# [5] = Homo sapiens, A549, 6 point assay, A549 cells, read-out: IC50, A549 cells
Compound,"IC50 [1, 2] [nM]",IC50 (A549 (lung carcinoma); [3]) [nM],"IC50 [1, 4] [nM]",IC50 (A549 (lung carcinoma); [5]) [nM],further results
"CCCNC(=O)C1C2C=CC(C2)C1Nc1nc(Nc2ccc(N3CCN(C)CC3)c(C)c2)ncc1F (racemic) [compound 168, Racemic-(2-exo,3-exo)-5-fluoro-N2-[4-(4-methylpiperazin-1-yl)-3-methylphenyl]-N4-[3-(N-n-propyl)aminocarbonylbicyclo[2.2.1]hept-5-en-2-yl]-2,4-pyrimidinediamine]",≤ 100,≤ 100,,,
"Cc1cc(Nc2ncc(F)c(N[C@H]3[C@@H](C(N)=O)[C@@H]4C=C[C@H]3C4)n2)ccc1NC1CCN(C)CC1 [compound 272, (1R,2R,3S,4S)-N4-(3-Aminocarbonylbicyclo[2.2.1]hept-5-en-2-yl)-5-fluoro-N2-(3-methyl-4-(1-methylpiperidin-4-ylamino)phenyl]-2,4-pyrimidinediamine]",,,≤ 100,≤ 100,
"Cc1cc(Nc2ncc(F)c(N[C@H]3[C@@H](C(N)=O)[C@@H]4C=C[C@H]3C4)n2)ccc1OCC1CCN(C)CC1 [compound 153, (1R,2R,3S,4S)-N4-(3-Aminocarbonylbicyclo[2.2.1]hept-5-en-2-yl)-5-fluoro-N2-[4-(1-methylpiperidin-4-ylmethyleneoxy)-3-methylphenyl]-2,4-pyrimidinediamine]",≤ 100,≤ 100,,,
"Cc1cc(Nc2ncc(F)c(N[C@H]3[C@@H](C(N)=O)[C@@H]4C=C[C@H]3C4)n2)ccc1OC1CCCN(C)C1 (mixture of isomers) [compound 147, (1R,2R,3S,4S)-N4-(3-Aminocarbonylbicyclo[2.2.1]hept-5-en-2-yl)-5-fluoro-N2-[3-methyl-4-(1-methylpiperidin-3(±)-yloxy)phenyl]-2,4-pyrimidinediamine]",,,,,"IC50 ([1]; H1299 cells, 6 point assay, read-out: H1299, 6pt (IC50, inhibition of proliferation)): ≤ 100 nM; IC50 (A549 (lung carcinoma); A549 cells, 6 point assay, read-out: A549, 6pt (IC50, inhibition of proliferation)): ≤ 100 nM"
"COCc1cc(Nc2ncc(F)c(N[C@H]3CCC[C@H]3C(N)=O)n2)ccc1N1CCN(C)CC1 (racemic) [compound 216, Racemic-cis-N4-(2-aminocarbonylcyclopent-1-yl)-5-fluoro-N2-[4-(4-methylpiperazin-1-yl)-3-methoxymethylenephenyl]-2,4-pyrimidinediamine]",,,100 to 1000,100 to 1000,
"Cc1cc(Nc2ncc(F)c(N[C@@H]3CCC[C@H]3C(=O)O)n2)ccc1N1CCN(C)CC1 [compound 211, (1R,2R)-5-fluoro-N4-(2-hydroxycarbonylcyclopent-1-yl)-N2-[3-methyl-4-(4-methylpiperazino)phenyl]-2,4-pyrimidinediamine]",,,> 10000,> 10000,
"CN1CCC(Oc2cccc(Nc3ncc(F)c(N[C@H]4[C@@H](C(N)=O)[C@@H]5C=C[C@H]4C5)n3)c2)CC1 [compound 149, (1R,2R,3S,4S)-N4-(3-Aminocarbonylbicyclo[2.2.1]hept-5-en-2-yl)-5-fluoro-N2-[3-(1-methylpiperidin-4-yloxy)phenyl]-2,4-pyrimidinediamine]",≤ 100,≤ 100,,,
"Cc1cc(Nc2ncc(F)c(NC3C4C=CC(C4)C3C(=O)NC3CCC3)n2)ccc1N1CCN(C)CC1 (racemic) [compound 165, Racemic-(2-exo,3-exo)-N4-[3-(N-cyclobutyl)aminocarbonylbicyclo[2.2.1]hept-5-en-2-yl]-5-fluoro-N2-[3-methyl-4-(4-methylpiperazin-1-yl)phenyl]-2,4-pyrimidinediamine]",≤ 100,≤ 100,,,
"CN1CCN(C(=O)CCCc2ccc(Nc3ncc(F)c(N[C@H]4CCC[C@H]4C(N)=O)n3)cc2)CC1 (racemic) [compound 278, Racemic-cis-N4-(2-aminocarbonylcyclopent-1-yl)-5-fluoro-N2-{4-[(4-methylpiperazin-1-yl)-butan-1-one-4-yl]phenyl}-2,4-pyrimidinediamine]",,,1000 to 10000,1000 to 10000,
Cc1cc(Nc2ncc(F)c(NC3C4C=CC(C4)C3C(N)=O)n2)ccc1N1CCN(CCO)CC1 (racemic) [compound 111],≤ 100,≤ 100,,,
"CN1CCC(Oc2ccc(Nc3ncc(F)c(N[C@H]4[C@@H](C(N)=O)[C@@H]5C=C[C@H]4C5)n3)cc2C(F)(F)F)CC1 [compound 151, (1R,2R,3S,4S)-N4-(3-Aminocarbonylbicyclo[2.2.1]hept-5-en-2-yl)-5-fluoro-N2-[4-(1-methylpiperidin-4-yloxy)-3-trifluoromethylphenyl)-2,4-pyrimidinediamine]",≤ 100,≤ 100,,,
"CN1CCN(c2ccc(Nc3ncc(F)c(NC4CCCC4C(N)=O)n3)cc2Cl)CC1 (stereo not drawn) [compound 205, (cis)-N4-(2-Carboxamidocyclopent-1-yl)-N2-[3-chloro-4-(4-methylpiperazino)phenyl]-5-fluoro-2,4-pyrimidinediamine]",,,,,"IC50 ([1]; 6 point assay, H1299 cells, read-out: IC50, H1299 cells): 100 to 1000 nM; IC50 (A549 (lung carcinoma); 6 point assay, A549 cells, read-out: IC50, A549 cells): 100 to 1000 nM"
"Cc1cc(Nc2ncc(F)c(N[C@H]3CC[C@H](C(N)=O)C3)n2)ccc1N1CCN(C)CC1 [compound 220, (1S,3S)-N4-(3-Aminocarbonylcyclopent-1-yl)-5-fluoro-N2-[3-methyl-4-(4-methylpiperazin-1-yl)phenyl]-2,4-pyrimidinediamine]",,,1000 to 10000,1000 to 10000,
"Cc1cc(Nc2ncc(F)c(N[C@H]3[C@@H](C(N)=O)[C@@H]4C=C[C@H]3C4)n2)ccc1N(C1CC1)C1CCN(C)CC1 [compound 123, (1R,2R,3S,4S)-N4-(3-Aminocarbonylbicyclo[2.2.1]hept-5-en-2-yl)-5-fluoro-N2-{4-[N-cyclopropyl-(1-methylpiperidin-4-yl)]-3-methylphenyl}-2,4-pyrimidinediamine]",≤ 100,≤ 100,,,
"Cc1cc(Nc2ncc(F)c(NC3C4C=CC(C4)C3C(N)=O)n2)ccc1NC1CCN(C)CC1 (racemic) [compound 262, Racemic-(2-exo,3-exo)-N4-(3-aminocarbonylbicyclo[2.2.1]hept-5-en-2-yl)-5-fluoro-N2-[3-methyl-4-(1-methylpiperidin-4-ylamino)phenyl]-2,4-pyrimidinediamine]",,,≤ 100,≤ 100,
"CN1CCN(c2ccc(Nc3ncc(F)c(N[C@H]4CCC[C@H]4C(N)=O)n3)cc2CO)CC1 (racemic) [compound 217, Racemic-cis-N4-(2-aminocarbonylcyclopent-1-yl)-5-fluoro-N2-[3-hydroxymethylene-4-(4-methylpiperazin-1-yl)phenyl]-2,4-pyrimidinediamine]",,,1000 to 10000,100 to 1000,
"Cc1cc(Nc2ncc(F)c(NC3C4C=CC(C4)C3C(N)=O)n2)ccc1N1CCSCC1 (racemic) [compound 251, Racemic-(2-exo,3-exo)-N4-(3-aminocarbonylbicyclo[2.2.1]hept-5-en-2-yl)-5-fluoro-N2-[(3-methyl-1-thiomorpholin-4-yl)phenyl]-2,4-pyrimidinediamine]",,,≤ 100,≤ 100,
"Cc1cc(Nc2ncc(F)c(NC3C4C=CC(C4)C3C(N)=O)n2)cc(C)c1N1CCN(C)CC1 (racemic) [compound 271, Racemic-(2-exo,3-exo)-N4-(3-aminocarbonylbicyclo[2.2.1]hept-5-en-2-yl)-N2-[3,5-dimethyl-4-(4-methylpiperazin-1-yl)phenyl]-5-fluoro-2,4-pyrimidinediamine]",,,1000 to 10000,1000 to 10000,
"CC(=O)N1CCN(c2cccc(Nc3ncc(F)c(NC4CCCC4C(N)=O)n3)c2)CC1 (centres unmarked) [compound 197, N2-[3-(4-Acetylpiperazino)phenyl]-N4-(2-carboxamidocyclopentyl)-5-fluoro-2,4-pyrimidinediamine]",,,100 to 1000,1000 to 10000,
